Data from patent US10308602B2, “Organoselenium compounds, method for producing same, and pharmaceutical uses thereof in particular as antitumor agents” (TETRAHEDRON, priority 2014, dated 2019).

Tests used:
Format in all cases: cell-based
DU145 cells (prostate) = experiment: Cytotoxicity, WST-1 cell viability test, DU145; settings: Homo sapiens, DU-145, after 96 hours of treatment, read-out: Concentration decreasing by 50% the cell viability
Description: (§1) Eight cell lines originating from different types of cancer were used: PC3 and DU145 (prostate), HT-29 and LS-174T (colon), Hep G2 (liver), MCF-7 (breast), MIA PaCa-2 and PANC-1 (pancreas).
(§2) The cells are cultured in the specific culture medium described in Table II, at 37° C., 5% CO2, according to the operating procedures that are well known to the person skilled in the art.
(§3) After thawing and amplification of the cancer cells in the appropriate culture medium (described in 1.2.), 96-well plates are inoculated with these cells and incubated or not incubated (controls) in their respective culture medium, in the presence of the compounds to be tested at 10, 50, 100, 250 and 500 μM.
(§4) After 96 h of incubation, each 96-well plate is analyzed in order to measure the viability of the cells using a colorimetric test with WST-1.

LS174T cells (colon) = experiment: Cytotoxicity, WST-1 cell viability test, LS174T; settings: Homo sapiens, after 96 hours of treatment, read-out: Concentration decreasing by 50% the cell viability
Description: as §1, §2, §3, §4

HT-29 cells (colon) = experiment: Cytotoxicity, WST-1 cell viability test, HT-29; settings: Homo sapiens, after 96 hours of treatment, read-out: Concentration decreasing by 50% the cell viability
Description: as §1, §2, §3, §4

MCF-7 cells (breast) = experiment: Cytotoxicity, WST-1 cell viability test, MCF-7; settings: Homo sapiens, MCF7, after 96 hours of treatment, read-out: Concentration decreasing by 50% the cell viability
Description: as §1, §2, §3, §4

PANC-1 cells (pancreas) = experiment: Cytotoxicity, WST-1 cell viability test, PANC-1; settings: Homo sapiens, after 96 hours of treatment, read-out: Concentration decreasing by 50% the cell viability
Description: as §1, §2, §3, §4

PC3 cells (prostate) = experiment: Cytotoxicity, WST-1 cell viability test, PC3; settings: Homo sapiens, PC-3, after 96 hours of treatment, read-out: Concentration decreasing by 50% the cell viability
Description: as §1, §2, §3, §4

[1] = tested on: MIA PaCa-2 cells (pancreas); experiment: Cytotoxicity, WST-1 cell viability test, MIA PaCa-2; settings: Homo sapiens, after 96 hours of treatment, read-out: Concentration decreasing by 50% the cell viability
Description: as §1, §2, §3, §4

Hep G2 cells (liver) = experiment: Cytotoxicity, WST-1 cell viability test, Hep G2; settings: Homo sapiens, HepG2, after 96 hours of treatment, read-out: Concentration decreasing by 50% the cell viability
Description: as §1, §2, §3, §4

Compound	IC50 (DU145 cells (prostate)) [µM]	IC50 (LS174T cells (colon)) [µM]	IC50 (HT-29 cells (colon)) [µM]	IC50 (MCF-7 cells (breast)) [µM]	IC50 (PANC-1 cells (pancreas)) [µM]	IC50 (PC3 cells (prostate)) [µM]	IC50 [1] [µM]	IC50 (Hep G2 cells (liver)) [µM]
CCOC(=O)C(O)C[Se]C (stereo not shown) [Compound 4, ethyl ester of 2-hydroxy-3-(methylseleno)propanoic acid]	481	335	–	–	–	–	–	–
C[Se]CC(O)C(=O)O (stereo not shown) [Compound 10, 2-hydroxy-3-(methylseleno)propanoic acid]	392	430	328	–	–	–	–	–
CCCCCCCCCCCC(=O)OC(C[Se]C)C(=O)O (stereo not shown) [Compound 38, 2-(dodecanoyloxy)-3-(methylseleno)propanoic acid]	169	113	166	215	253	198	308	263
